Assay results from PubChem BioAssay AID1963839 (Molecular Pharmacology Branch, DTP, NCI, 2024).

System: 817829-284-R-J1-PDC complex spheroid viability
Experiment: Anticancer human tumor 817829-284-R-J1-PDC patient-derived colon adenocarcinoma cell line growth inhibition [POLQ]
Conditions: for IC50: curve of first compound; for viability, T/C: stronger effect = lower value
How it was run: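 Complex spheroid viability model combining PDC tumour cells with endothelial (HUVEC) and MSC stromal cells. Novobiocin, ART-558 or RP6685 were tested singly and in combination with standard and investigational anticancer drugs. Each was titrated in half-log steps from near clinical Cmax, or from 10 microM where Cmax was unknown.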

[1] = second compound 0.0316 µM, first compound 0.0316 µM
[2] = second compound 0.0316 µM, first compound 0.1 µM
[3] = second compound 0.0316 µM, first compound 0.316 µM
[4] = second compound 0.0316 µM, first compound 1 µM
[5] = second compound 0.1 µM, first compound 0.0316 µM
[6] = second compound 0.1 µM, first compound 0.1 µM
[7] = second compound 0.1 µM, first compound 0.316 µM
[8] = second compound 0.1 µM, first compound 1 µM
[9] = second compound 0.316 µM, first compound 0.0316 µM
[10] = second compound 0.316 µM, first compound 0.1 µM
[11] = second compound 0.316 µM, first compound 0.316 µM
[12] = second compound 0.316 µM, first compound 1 µM
[13] = second compound 1 µM, first compound 0.0316 µM
[14] = second compound 1 µM, first compound 0.1 µM
[15] = second compound 1 µM, first compound 0.316 µM
[16] = second compound 1 µM, first compound 1 µM
[17] = second compound 3.16 µM, first compound 0.0316 µM
[18] = second compound 3.16 µM, first compound 0.1 µM
[19] = second compound 3.16 µM, first compound 0.316 µM
[20] = second compound 3.16 µM, first compound 1 µM
[21] = second compound 10 µM, first compound 0.0316 µM
[22] = second compound 10 µM, first compound 0.1 µM
[23] = second compound 10 µM, first compound 0.316 µM
[24] = second compound 10 µM, first compound 1 µM
[25] = second compound 0.0316 µM, first compound 0.00316 µM
[26] = second compound 0.0316 µM, first compound 0.01 µM
[27] = second compound 0.1 µM, first compound 0.00316 µM
[28] = second compound 0.1 µM, first compound 0.01 µM
[29] = second compound 0.316 µM, first compound 0.00316 µM
[30] = second compound 0.316 µM, first compound 0.01 µM
[31] = second compound 1 µM, first compound 0.00316 µM
[32] = second compound 1 µM, first compound 0.01 µM
[33] = second compound 3.16 µM, first compound 0.00316 µM
[34] = second compound 3.16 µM, first compound 0.01 µM
[35] = second compound 10 µM, first compound 0.00316 µM
[36] = second compound 10 µM, first compound 0.01 µM
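Also: spheroids exposed to compounds for 7 days.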
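For viability, T/C in this document: 100% = DMSO vehicle-treated spheroids.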

CC(C)n1c(=O)n(C)c2cnc3cc(F)c(-c4ccc(OCCCN5CCCCC5)nc4)cc3c21 + Nc1ccc(C#CCN(C(=O)Cc2ncc(C(F)(F)F)cc2C(F)(F)F)c2ccc(F)cc2)nn1
IC50 (second compound 0.0316 µM): > 10000 nM
IC50 (second compound 0.1 µM): 7800 nM
IC50 (second compound 0.316 µM): 8100 nM
IC50 (second compound 1 µM): 6500 nM
IC50 (second compound 3.16 µM): 9720 nM
IC50 (second compound 10 µM): 7910 nM
viability, T/C [1]: 84.8%
viability, T/C [2]: 92.4%
viability, T/C [3]: 79.6%
viability, T/C [4]: 95.8%
viability, T/C (second compound 0.0316 µM, first compound 3.16 µM): 85.7%
viability, T/C (second compound 0.0316 µM, first compound 10 µM): 60.4%
viability, T/C [5]: 85.2%
viability, T/C [6]: 77.2%
viability, T/C [7]: 94.5%
viability, T/C [8]: 88.9%
viability, T/C (second compound 0.1 µM, first compound 3.16 µM): 84.8%
viability, T/C (second compound 0.1 µM, first compound 10 µM): 40.4%
viability, T/C [9]: 96.1%
viability, T/C [10]: 95%
viability, T/C [11]: 110%
viability, T/C [12]: 83.1%
viability, T/C (second compound 0.316 µM, first compound 3.16 µM): 81.3%
viability, T/C (second compound 0.316 µM, first compound 10 µM): 43.3%
viability, T/C [13]: 95%
viability, T/C [14]: 89.1%
viability, T/C [15]: 103%
viability, T/C [16]: 87.7%
viability, T/C (second compound 1 µM, first compound 3.16 µM): 76%
viability, T/C (second compound 1 µM, first compound 10 µM): 34.7%
viability, T/C [17]: 81.8%
viability, T/C [18]: 86.2%
viability, T/C [19]: 105%
viability, T/C [20]: 94.5%
viability, T/C (second compound 3.16 µM, first compound 3.16 µM): 92.8%
viability, T/C (second compound 3.16 µM, first compound 10 µM): 48.9%
viability, T/C [21]: 81.7%
viability, T/C [22]: 96%
viability, T/C [23]: 106%
viability, T/C [24]: 76.3%
viability, T/C (second compound 10 µM, first compound 3.16 µM): 82.2%
viability, T/C (second compound 10 µM, first compound 10 µM): 42%

CCc1c2c(nc3ccc(O)cc13)-c1cc3c(c(=O)n1C2)COC(=O)[C@]3(O)CC + Cc1cccc(N(C)C(=O)C2C(O)CCN2c2nc(C)cc(C(F)(F)F)c2C#N)c1
IC50 (second compound 0.0316 µM): < 3.16 nM
IC50 (second compound 0.1 µM): < 3.16 nM
IC50 (second compound 0.316 µM): < 3.16 nM
IC50 (second compound 1 µM): < 3.16 nM
IC50 (second compound 3.16 µM): < 3.16 nM
IC50 (second compound 10 µM): < 3.16 nM
viability, T/C [25]: 25.3%
viability, T/C [26]: 19%
viability, T/C [1]: 13.3%
viability, T/C [2]: 7.02%
viability, T/C [3]: 5.47%
viability, T/C [4]: 2.88%
viability, T/C [27]: 24.9%
viability, T/C [28]: 16.9%
viability, T/C [5]: 11.1%
viability, T/C [6]: 8.13%
viability, T/C [7]: 5.27%
viability, T/C [8]: 3.6%
viability, T/C [29]: 16.9%
viability, T/C [30]: 15.3%
viability, T/C [9]: 11.9%
viability, T/C [10]: 9.03%
viability, T/C [11]: 5.25%
viability, T/C [12]: 3.06%
viability, T/C [31]: 24.7%
viability, T/C [32]: 18.8%
viability, T/C [13]: 11.3%
viability, T/C [14]: 5.74%
viability, T/C [15]: 5.46%
viability, T/C [16]: 3.33%
viability, T/C [33]: 19.6%
viability, T/C [34]: 15.9%
viability, T/C [17]: 12.5%
viability, T/C [18]: 8.19%
viability, T/C [19]: 4.73%
viability, T/C [20]: 2.56%
viability, T/C [35]: 20.8%
viability, T/C [36]: 17%
viability, T/C [21]: 11.3%
viability, T/C [22]: 7.07%
viability, T/C [23]: 5.05%
viability, T/C [24]: 2.83%

CCc1c2c(nc3ccc(O)cc13)-c1cc3c(c(=O)n1C2)COC(=O)[C@]3(O)CC + COC1C(OC(N)=O)C(O)C(Oc2ccc3c(O)c(NC(=O)c4ccc(O)c(CC=C(C)C)c4)c(=O)oc3c2C)OC1(C)C
IC50 (second compound 0.0316 µM): < 3.16 nM
IC50 (second compound 0.1 µM): < 3.16 nM
IC50 (second compound 0.316 µM): < 3.16 nM
IC50 (second compound 1 µM): < 3.16 nM
IC50 (second compound 3.16 µM): < 3.16 nM
IC50 (second compound 10 µM): < 3.16 nM
viability, T/C [25]: 25.5%
viability, T/C [26]: 17.6%
viability, T/C [1]: 10.6%
viability, T/C [2]: 8.89%
viability, T/C [3]: 5.32%
viability, T/C [4]: 3.77%
viability, T/C [27]: 17.9%
viability, T/C [28]: 16.7%
viability, T/C [5]: 11%
viability, T/C [6]: 7%
viability, T/C [7]: 5.78%
viability, T/C [8]: 3%
viability, T/C [29]: 21.2%
viability, T/C [30]: 15%
viability, T/C [9]: 11.7%
viability, T/C [10]: 8.14%
viability, T/C [11]: 5.95%
viability, T/C [12]: 2.76%
viability, T/C [31]: 18.1%
viability, T/C [32]: 16.1%
viability, T/C [13]: 11.3%
viability, T/C [14]: 7.95%
viability, T/C [15]: 8.47%
viability, T/C [16]: 3.04%
viability, T/C [33]: 14.1%
viability, T/C [34]: 16.3%
viability, T/C [17]: 11%
viability, T/C [18]: 7.05%
viability, T/C [19]: 4.82%
viability, T/C [20]: 3.32%
viability, T/C [35]: 23.3%
viability, T/C [36]: 14.8%
viability, T/C [21]: 12.8%
viability, T/C [22]: 6.77%
viability, T/C [23]: 5.07%
viability, T/C [24]: 2.89%
